From the supplement of paper PMC10307832

Assays:
Test in all cases: relative viability (nuclei count vs DMSO), 5 days (fraction); higher = more cells survive
NCI-H1648 = system: NCI-H1648
Summary of the method: (§1)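 Lung cancer cell lines were seeded in 1536-well plates and dosed by pin tool the next day, with either a single drug or a fixed anchor-drug dose combined with five library-drug doses (not always all listed) spaced in √10 steps. Five days later, one step fixed the cells and stained their nuclei (final 0.05% Triton X-100, 1% formaldehyde, 1 ug/ml Hoechst), and nuclei were counted on 4× images. Relative viability is the nuclei count in treated wells divided by the count in vehicle wells, and each value is the median of duplicate plates.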

HARA = system: HARA
Summary of the method: as §1

PC-14 = system: PC-14
Summary of the method: as §1

NCI-H460 = system: NCI-H460
Summary of the method: as §1

HCC-366 = system: HCC-366
Summary of the method: as §1

HCC-15 = system: HCC-15
Summary of the method: as §1

A-427 = system: A-427
Summary of the method: as §1

NCI-H2023 = system: NCI-H2023
Summary of the method: as §1

COR-L23 = system: COR-L23
Summary of the method: as §1

NCI-H1915 = system: NCI-H1915
Summary of the method: as §1

NCI-H727 = system: NCI-H727
Summary of the method: as §1

HCC-78 = system: HCC-78
Summary of the method: as §1

COR-L 105 = system: COR-L 105
Summary of the method: as §1

NCI-H3122 = system: NCI-H3122
Summary of the method: as §1

NCI-H1437 = system: NCI-H1437
Summary of the method: as §1

LK-2 = system: LK-2
Summary of the method: as §1

NCI-H1666 = system: NCI-H1666
Summary of the method: as §1

NCI-H2405 = system: NCI-H2405
Summary of the method: as §1

NCI-H1944 = system: NCI-H1944
Summary of the method: as §1

HCC-44 = system: HCC-44
Summary of the method: as §1

LCLC-97TM1 = system: LCLC-97TM1
Summary of the method: as §1

201T = system: 201T
Summary of the method: as §1

NCI-H1975 = system: NCI-H1975
Summary of the method: as §1

## Nc1cccc2c1CN(C1CCC(=O)NC1=O)C2=O (centres undefined) [Lenalidomide] + O=C(CCCCCCC(=O)Nc1ccccc1)NO [Vorinostat] (partner 1 µM)
NCI-H1648; first compound 0.253 µM
  relative viability: 0.513
NCI-H1648; first compound 2.53 µM
  relative viability: 0.885
NCI-H1648; first compound 8 µM
  relative viability: 0.392
HARA; first compound 0.253 µM
  relative viability: 0.61
HARA; first compound 2.53 µM
  relative viability: 0.628
HARA; first compound 8 µM
  relative viability: 0.512
PC-14; first compound 0.253 µM
  relative viability: 0.745
PC-14; first compound 0.8 µM
  relative viability: 0.713
PC-14; first compound 2.53 µM
  relative viability: 0.826
PC-14; first compound 8 µM
  relative viability: 0.922
NCI-H460; first compound 0.253 µM
  relative viability: 0.815
NCI-H460; first compound 0.8 µM
  relative viability: 0.715
NCI-H460; first compound 2.53 µM
  relative viability: 1.03
NCI-H460; first compound 8 µM
  relative viability: 0.783
HCC-366; first compound 0.253 µM
  relative viability: 0.335
HCC-366; first compound 0.8 µM
  relative viability: 0.102
HCC-366; first compound 2.53 µM
  relative viability: 0.479
HCC-366; first compound 8 µM
  relative viability: 0.265
HCC-15; first compound 0.253 µM
  relative viability: 0.826
HCC-15; first compound 0.8 µM
  relative viability: 0.855
HCC-15; first compound 2.53 µM
  relative viability: 0.917
HCC-15; first compound 8 µM
  relative viability: 0.795
A-427; first compound 0.253 µM
  relative viability: 0.871
A-427; first compound 0.8 µM
  relative viability: 0.898
A-427; first compound 2.53 µM
  relative viability: 0.878
A-427; first compound 8 µM
  relative viability: 0.873
NCI-H2023; first compound 0.253 µM
  relative viability: 0.637
NCI-H2023; first compound 0.8 µM
  relative viability: 0.732
NCI-H2023; first compound 2.53 µM
  relative viability: 0.652
NCI-H2023; first compound 8 µM
  relative viability: 0.468
COR-L23; first compound 0.253 µM
  relative viability: 0.542
COR-L23; first compound 0.8 µM
  relative viability: 0.408
COR-L23; first compound 2.53 µM
  relative viability: 0.498
COR-L23; first compound 8 µM
  relative viability: 0.509
NCI-H1915; first compound 0.253 µM
  relative viability: 0.478
NCI-H1915; first compound 0.8 µM
  relative viability: 0.482
NCI-H1915; first compound 2.53 µM
  relative viability: 0.601
NCI-H1915; first compound 8 µM
  relative viability: 0.445
NCI-H727; first compound 0.253 µM
  relative viability: 1.26
NCI-H727; first compound 0.8 µM
  relative viability: 1.04
NCI-H727; first compound 2.53 µM
  relative viability: 1.32
NCI-H727; first compound 8 µM
  relative viability: 1.22
HCC-78; first compound 0.253 µM
  relative viability: 0.447
HCC-78; first compound 0.8 µM
  relative viability: 0.456
HCC-78; first compound 2.53 µM
  relative viability: 0.474
HCC-78; first compound 8 µM
  relative viability: 0.486
COR-L 105; first compound 0.253 µM
  relative viability: 0.682
COR-L 105; first compound 0.8 µM
  relative viability: 0.863
COR-L 105; first compound 2.53 µM
  relative viability: 0.983
COR-L 105; first compound 8 µM
  relative viability: 0.858
NCI-H3122; first compound 0.253 µM
  relative viability: 0.723
NCI-H3122; first compound 0.8 µM
  relative viability: 1.05
NCI-H3122; first compound 2.53 µM
  relative viability: 0.95
NCI-H3122; first compound 8 µM
  relative viability: 0.966
NCI-H1437; first compound 0.253 µM
  relative viability: 0.825
NCI-H1437; first compound 0.8 µM
  relative viability: 0.85
NCI-H1437; first compound 2.53 µM
  relative viability: 0.934
NCI-H1437; first compound 8 µM
  relative viability: 0.843
LK-2; first compound 0.253 µM
  relative viability: 0.339
LK-2; first compound 0.8 µM
  relative viability: 0.252
LK-2; first compound 2.53 µM
  relative viability: 0.353
LK-2; first compound 8 µM
  relative viability: 0.189
NCI-H1666; first compound 0.253 µM
  relative viability: 1.05
NCI-H1666; first compound 0.8 µM
  relative viability: 1.01
NCI-H1666; first compound 2.53 µM
  relative viability: 1.14
NCI-H1666; first compound 8 µM
  relative viability: 1.04
NCI-H2405; first compound 0.253 µM
  relative viability: 1.12
NCI-H2405; first compound 0.8 µM
  relative viability: 0.934
NCI-H2405; first compound 2.53 µM
  relative viability: 1.09
NCI-H2405; first compound 8 µM
  relative viability: 0.943
NCI-H1944; first compound 0.253 µM
  relative viability: 0.543
NCI-H1944; first compound 2.53 µM
  relative viability: 0.58
NCI-H1944; first compound 8 µM
  relative viability: 0.44
HCC-44; first compound 0.253 µM
  relative viability: 1.05
HCC-44; first compound 0.8 µM
  relative viability: 0.926
HCC-44; first compound 2.53 µM
  relative viability: 1.04
HCC-44; first compound 8 µM
  relative viability: 1.08
LCLC-97TM1; first compound 0.253 µM
  relative viability: 0.586
LCLC-97TM1; first compound 0.8 µM
  relative viability: 0.581
LCLC-97TM1; first compound 2.53 µM
  relative viability: 0.901
LCLC-97TM1; first compound 8 µM
  relative viability: 0.507
201T; first compound 0.253 µM
  relative viability: 0.963
201T; first compound 0.8 µM
  relative viability: 0.791
201T; first compound 2.53 µM
  relative viability: 0.955
201T; first compound 8 µM
  relative viability: 0.859
NCI-H1975; first compound 0.253 µM
  relative viability: 0.72
NCI-H1975; first compound 0.8 µM
  relative viability: 0.768
NCI-H1975; first compound 2.53 µM
  relative viability: 0.736
NCI-H1975; first compound 8 µM
  relative viability: 0.744
